Patent US12070454B1, “Anesthetic nerve block and method” (PFOF LLC, priority 2022, dated 2024)
Where “and” joins values, the source holds several entries; their conditions need not be identical. Identical values can stand only once.

What was measured:
[1] = test system: peripheral nerve; conditions: cited from earlier work; for extension of standard peripheral nerve block: dexmedetomidine and clonidine, along with corticosteroids; for duration of peripheral nerve block, local anesthetic alone: no adjuvant or steroid; for life of peripheral nerve blocks and tissue infiltrates with adjuvants: with epinephrine, corticosteroids, α2-agonists
[2] = test system: axolemma or node
Experimental: It is this small amount of bupivacaine within the axolemma/node that results, primarily, in continuing neural blockade for periods of 120 hours or more.

[3] = test system: target nerve; assay: ALALA-carbonate nerve block by injection of Solution 1 and Solution 2; assay type: in vivo, human; conditions: ALALA-carbonate precipitate in and around the nerve
Text: As shown in FIGS. 17-23, the establishment of a 5-day peripheral nerve block involves the injection of two separate and sequential solutions to form the ALALA-compound precipitate and crystals in vivo around the nerves for specific nerve blocks. These solutions form the ALALA-compound precipitates and crystals. As the two solutions must be kept separate until injection over the specific nerve is accomplished, the solutions may then react to form the ALALA-compound precipitate and crystals in vivo. This separation of solutions by two different means: • 1. The sequential injection of two separate solutions through a single needle (FIGS. 17-19 and 22). • 2. The simultaneous injection of both solutions through a bifurcated needle where mixing occurs only at the needle tip(s) opposite the target nerve (FIGS. 20 and 21). These alkaline solutions are: • 1. […] Epinephrine 86 is present at a concentration of ˜3 mcg/ml, primarily as a standard vascular marker producing mild tachycardia if leakage into the vascular system occurs. When Solution 1 is given, a pulse-oximeter or EKG rhythm strip must be run to confirm no tachycardia for 2 minutes to ensure Solution 1 has no leakage into the vascular system with a resulting tachycardia greater than 15% above baseline pulse. […] Solution 2 is injected only if no increase impulse rate greater than 15% above baseline is determined within 2 minutes. • 3. […]

[4] = assay type: physicochemical; conditions: for drug mass remaining in solution: 0.375 %; for drug mass precipitated: equal volumes of 8.4% NaHCO3 and 0.75% anesthetic solution, in vitro
Text: Because of their elevated pKa's, ALALA drugs will form a crystalline precipitate 82 in an alkaline environment, both intra-axonally and extra-axonally (at the nodes of Ranvier 20 in A-delta fibers and generally around the axon in C-fibers). […] It is anticipated levo-bupivacaine will react similarly to levo-ropivacaine at 96.5% conversion to precipitate and crystallization when this drug becomes available.
NaHCO3 in Solution 1, when mixed with bupivacaine, levo-bupivacaine, or ropivacaine of Solution 2, will cause these drugs to immediately precipitate into crystals in this alkaline solution.
As discovered in our laboratory, 8.4% NaHCO3, when combined in vitro with bupivacaine or ropivacaine, results in precipitates of 93.5% and 96.5% respectively of the parent ALALA drug. […] Controlling the pH of the final combination of all these drugs and bases more efficiently controls the percentage of ALALA converted to precipitate and crystals and thereby the duration of the resulting nerve block.

[5] = test system: peripheral nerve; assay type: in vivo, human
Text: The mass of ALALA drug precipitated around the peripheral nerve or infiltrated tissue causes the intraneural metabolic mechanism transforming unionized to ionized ALALA drug to get overwhelmed. Thus, the normal transformation to ionized ALALA drug gets delayed to the point it takes 5 days or longer for all the ALALA drug to be metabolized and the block to wear off.

[6] = cited from earlier work; for pH at which precipitates began to form: combined with NaOH
[7] = Test-tube combination of levobupivacaine with NaHCO3 versus molar prediction; assay type: physicochemical
Text: In a test-tube with one mole of ropivacaine or levobupivacaine reacting with one mole of NaHCO3, a much higher percentage of ropivacaine or levobupivacaine is converted to the ALALA-bicarbonate precipitate than with racemic bupivacaine. Testing with levobupivacaine with NaHCO3 it was established that, levobupivacaine combines with NaHCO3 much more readily than molar predictions indicated. Where molar quantities predicted a 57.7% combination, an 83.9% combination occurred. Where another molar quantity predicted an 86.5% combination, a 94.0% combining of levobupivacaine and NaHCO3 occurred. Thus levo-enantiomers of the ALALA drugs are the preferred forms to be used to create these ALALA-bicarbonate precipitates.

[8] = Precipitation of local anesthetics with increasing pH (NaOH) or corticosteroids; assay type: physicochemical; conditions: alkaline solution
[9] = humans; cited from earlier work
[10] = cited from earlier work

| Compound | extension of standard peripheral nerve block [1] | duration of peripheral nerve block, local anesthetic alone [1] | life of peripheral nerve blocks and tissue infiltrates with adjuvants [1] | drug mass remaining in solution [4] | drug mass precipitated [4] | pH at which precipitates began to form [6] | further results |
| --- | --- | --- | --- | --- | --- | --- | --- |
| CCCCN1CCCCC1C(=O)Nc1c(C)cccc1C (racemic) [bupivacaine, (RS)-1-butyl-N-(2,6-dimethylphenyl)piperidine-2-carboxamide] | ~50% | ~12 h and 16 h | ~24 h | 7.47% | 93.53% and 93.5% and 92.53% | 7.7 pH | fraction penetrating the axolemma or node before precipitation [2]: approximately 11.9%; duration of neural blockade / analgesia [3]: ≥ 120 h; duration of block achieved ([5]; 225 mg bupivacaine dose, single volunteer): 5 days; depot as percentage of the dose injected ([5]; human, in vivo): 7.163% |
| CC1(C)O[C@@H]2C[C@H]3[C@@H]4CCC5=CC(=O)C=C[C@]5(C)[C@@]4(F)[C@@H](O)C[C@]3(C)[C@]2(C(=O)CO)O1 [Triamcinolone] | – | – | – | – | – | – | precipitate effect when combined with the ALALA drugs ([6]; Hwang et al.): no precipitate-effects |
| CCCCN1CCCC[C@H]1C(=O)Nc1c(C)cccc1C [levobupivacaine, (S)-1-butyl-N-(2,6-dimethylphenyl)-2-piperidinecarboxamide] | – | ~12 h | ~24 h | – | – | – | combining of levobupivacaine and NaHCO3 that occurred ([7]; where another molar quantity predicted an 86.5% combination): 94.0%; combination of levobupivacaine and NaHCO3 that occurred ([7]; where molar quantities predicted a 57.7% combination): 83.9% |
| CCN(CC)CC(=O)Nc1c(C)cccc1C [lidocaine] | – | – | – | – | – | – | pH at which lidocaine precipitates [8]: ~11.5 pH |
| CCCN1CCCC[C@H]1C(=O)Nc1c(C)cccc1C [ropivacaine, (S)-1-propyl-N-(2,6-dimethylphenyl)piperidine-2-carboxamide] | ~50% | ~12 h and 16 h | ~24 h | 3.50% | 96.5% | 6.9 pH | – |
| CCCCNc1ccc(C(=O)OCCN(C)C)cc1 [tetracaine] | – | – | – | – | – | – | dose at which anaphylactic reactions are known [9]: ≤ 10 mg; pKa relative to bupivacaine [10]: higher than bupivacaine |
